In US20260184713A1, “KINASE INHIBITORS” (The United States of America, as represented by the …, priority 2022, published 2026):
Each block holds one compound with its values, some of them ahead of it.

What was measured:
[1] = molecular target: RIα2:JPKAcα2 chimeric kinase holoenzyme (Homo sapiens, UniProt P17612); experiment: JPKAcα chimeric kinase holoenzyme ELISA dose response
Experimental: Compounds were tested to determine an IC50 value for inhibitory activity against RIα2:JPKAcα2 chimeric kinase holoenzyme. A 3× dose-response curve was set up over a final compound concentration range of 0-10 μM containing 1 μM cAMP, 50 μM ATP, and 0.4% DMSO in 100 mM Tris-HCl pH 7.5 (all final concentrations). A no cAMP/ATP control was also included for background normalization.
The % normalized activity measures were then fit to the following equation using a nonlinear regression least-squares fit with a variable slope (GraphPad Prism Software, San Diego, CA) an IC50 value was calculated using the following formula.

wide-type PKA (wt-PKA) = wide-type PKA (wt-PKA) (Homo sapiens, UniProt P17612); experiment: modified sandwich ELISA, wild-type PKA; assay type: biochemical; details: read-out: IC50 against wt-PKA
PKG1α = PKG1α (Homo sapiens, UniProt Q13976); experiment: HOTSPOT radiometric kinase assay; assay type: biochemical; details: 50 nM, 10 μM ATP
Sequence of PKG1α (Q13976 whole entry): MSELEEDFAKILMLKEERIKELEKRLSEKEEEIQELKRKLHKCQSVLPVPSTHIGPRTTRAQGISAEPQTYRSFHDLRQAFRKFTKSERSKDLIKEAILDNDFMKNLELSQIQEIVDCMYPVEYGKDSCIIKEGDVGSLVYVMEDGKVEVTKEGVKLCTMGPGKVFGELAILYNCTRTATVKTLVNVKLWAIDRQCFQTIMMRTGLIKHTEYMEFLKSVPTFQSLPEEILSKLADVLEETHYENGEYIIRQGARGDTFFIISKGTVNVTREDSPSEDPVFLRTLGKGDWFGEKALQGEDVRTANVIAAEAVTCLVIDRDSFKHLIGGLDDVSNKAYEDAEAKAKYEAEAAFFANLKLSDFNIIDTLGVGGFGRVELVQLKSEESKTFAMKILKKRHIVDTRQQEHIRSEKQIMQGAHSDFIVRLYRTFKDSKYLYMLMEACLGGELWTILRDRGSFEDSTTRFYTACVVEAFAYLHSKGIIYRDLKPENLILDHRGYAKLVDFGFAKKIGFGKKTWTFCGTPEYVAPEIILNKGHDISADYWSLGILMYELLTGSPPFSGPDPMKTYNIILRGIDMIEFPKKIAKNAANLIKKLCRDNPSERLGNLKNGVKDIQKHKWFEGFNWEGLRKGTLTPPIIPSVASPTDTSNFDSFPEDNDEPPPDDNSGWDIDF

PKG1β = molecular target: T1, PKG1β (Homo sapiens, UniProt Q13976); experiment: HOTSPOT radiometric kinase assay; assay type: biochemical; details: 50 nM, 10 μM ATP
T1 construct: purchased Reaction Biology Corp

PKCθ = molecular target: T2, PKCθ (Homo sapiens, UniProt Q04759); experiment: HOTSPOT radiometric kinase assay; assay type: biochemical; details: 50 nM, 10 μM ATP
T2 construct: purchased Reaction Biology Corp
T2 sequence (Q04759 whole entry): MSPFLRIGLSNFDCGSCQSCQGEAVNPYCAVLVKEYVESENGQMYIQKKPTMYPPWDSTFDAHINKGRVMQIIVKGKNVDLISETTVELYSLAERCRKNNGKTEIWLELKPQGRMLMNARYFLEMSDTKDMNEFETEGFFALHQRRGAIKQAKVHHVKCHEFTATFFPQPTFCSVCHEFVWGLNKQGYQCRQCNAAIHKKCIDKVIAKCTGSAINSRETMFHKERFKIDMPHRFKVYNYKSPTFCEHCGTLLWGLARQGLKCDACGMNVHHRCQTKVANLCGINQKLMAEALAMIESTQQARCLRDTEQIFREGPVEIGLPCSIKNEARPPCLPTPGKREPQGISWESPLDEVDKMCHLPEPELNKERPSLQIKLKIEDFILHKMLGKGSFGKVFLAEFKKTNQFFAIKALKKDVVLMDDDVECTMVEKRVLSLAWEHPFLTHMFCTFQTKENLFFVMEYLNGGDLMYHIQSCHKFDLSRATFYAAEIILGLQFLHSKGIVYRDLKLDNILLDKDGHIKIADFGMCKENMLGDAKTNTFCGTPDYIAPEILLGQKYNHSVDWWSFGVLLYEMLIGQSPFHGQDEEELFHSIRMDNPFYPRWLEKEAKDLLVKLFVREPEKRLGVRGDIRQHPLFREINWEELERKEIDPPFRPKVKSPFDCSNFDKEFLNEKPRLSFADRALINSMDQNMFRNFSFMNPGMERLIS

CLK1 = molecular target: T3, CLK1 (Homo sapiens, UniProt P49759); experiment: HOTSPOT radiometric kinase assay; assay type: biochemical; details: 50 nM, 10 μM ATP
T3 construct: purchased Reaction Biology Corp
T3 sequence (P49759 whole entry): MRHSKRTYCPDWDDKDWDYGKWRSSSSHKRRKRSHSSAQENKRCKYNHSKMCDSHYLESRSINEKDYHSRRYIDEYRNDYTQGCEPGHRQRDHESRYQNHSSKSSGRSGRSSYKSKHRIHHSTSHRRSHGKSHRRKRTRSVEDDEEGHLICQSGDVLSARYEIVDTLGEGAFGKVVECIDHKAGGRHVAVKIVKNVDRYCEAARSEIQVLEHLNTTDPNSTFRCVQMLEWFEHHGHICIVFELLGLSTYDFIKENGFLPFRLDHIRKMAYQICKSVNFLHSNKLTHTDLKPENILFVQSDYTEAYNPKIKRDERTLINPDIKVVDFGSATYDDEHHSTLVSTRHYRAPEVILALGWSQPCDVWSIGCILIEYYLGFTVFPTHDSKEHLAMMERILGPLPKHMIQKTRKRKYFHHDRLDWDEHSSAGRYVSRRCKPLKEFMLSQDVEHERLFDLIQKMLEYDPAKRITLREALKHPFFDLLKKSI

STK39/STLK3 = molecular target: T4, STK39/STLK3 (Homo sapiens, UniProt Q9UEW8); experiment: HOTSPOT radiometric kinase assay; assay type: biochemical; details: 50 nM, 10 μM ATP
T4 construct: purchased Reaction Biology Corp

LATS1 = molecular target: T5, LATS1 (Homo sapiens, UniProt O95835); experiment: HOTSPOT radiometric kinase assay; assay type: biochemical; details: 50 nM, 10 μM ATP
T5 construct: purchased Reaction Biology Corp
T5 sequence (O95835 1-1130): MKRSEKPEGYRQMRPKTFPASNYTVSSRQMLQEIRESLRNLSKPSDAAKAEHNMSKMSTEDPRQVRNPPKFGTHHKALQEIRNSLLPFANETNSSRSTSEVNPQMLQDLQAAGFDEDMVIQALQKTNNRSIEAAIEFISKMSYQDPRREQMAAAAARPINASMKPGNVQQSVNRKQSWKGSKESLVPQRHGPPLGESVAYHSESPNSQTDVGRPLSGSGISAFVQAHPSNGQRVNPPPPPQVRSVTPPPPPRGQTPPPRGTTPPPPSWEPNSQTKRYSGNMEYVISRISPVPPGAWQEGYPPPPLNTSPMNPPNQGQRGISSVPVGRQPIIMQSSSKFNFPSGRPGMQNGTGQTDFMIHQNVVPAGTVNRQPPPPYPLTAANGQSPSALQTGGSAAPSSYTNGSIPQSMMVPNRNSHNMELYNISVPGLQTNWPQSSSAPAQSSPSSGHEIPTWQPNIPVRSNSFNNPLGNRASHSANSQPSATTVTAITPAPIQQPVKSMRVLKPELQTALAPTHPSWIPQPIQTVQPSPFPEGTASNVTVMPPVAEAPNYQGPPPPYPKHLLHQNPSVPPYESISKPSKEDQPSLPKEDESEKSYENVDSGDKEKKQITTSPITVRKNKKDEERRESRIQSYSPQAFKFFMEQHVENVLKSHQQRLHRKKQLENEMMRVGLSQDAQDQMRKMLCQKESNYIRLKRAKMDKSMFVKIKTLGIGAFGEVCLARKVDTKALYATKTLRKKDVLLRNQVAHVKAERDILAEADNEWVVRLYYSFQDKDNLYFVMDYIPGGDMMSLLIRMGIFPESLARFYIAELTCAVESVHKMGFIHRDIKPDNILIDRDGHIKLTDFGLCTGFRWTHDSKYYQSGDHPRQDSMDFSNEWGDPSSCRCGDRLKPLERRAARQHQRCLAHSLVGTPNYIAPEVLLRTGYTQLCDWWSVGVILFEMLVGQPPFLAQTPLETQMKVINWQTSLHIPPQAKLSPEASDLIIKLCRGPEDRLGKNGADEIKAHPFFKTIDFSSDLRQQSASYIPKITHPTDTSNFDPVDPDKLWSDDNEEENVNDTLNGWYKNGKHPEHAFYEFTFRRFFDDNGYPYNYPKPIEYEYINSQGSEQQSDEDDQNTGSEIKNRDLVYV

DYRK1A = molecular target: T6, DYRK1A (Homo sapiens, UniProt Q13627); experiment: HOTSPOT radiometric kinase assay; assay type: biochemical; details: 50 nM, 10 μM ATP
T6 construct: purchased Reaction Biology Corp

DYRK2 = molecular target: T7, DYRK2 (Homo sapiens, UniProt Q92630); experiment: HOTSPOT radiometric kinase assay; assay type: biochemical; details: 50 nM, 10 μM ATP
T7 construct: purchased Reaction Biology Corp
T7 sequence (Q92630 1-601): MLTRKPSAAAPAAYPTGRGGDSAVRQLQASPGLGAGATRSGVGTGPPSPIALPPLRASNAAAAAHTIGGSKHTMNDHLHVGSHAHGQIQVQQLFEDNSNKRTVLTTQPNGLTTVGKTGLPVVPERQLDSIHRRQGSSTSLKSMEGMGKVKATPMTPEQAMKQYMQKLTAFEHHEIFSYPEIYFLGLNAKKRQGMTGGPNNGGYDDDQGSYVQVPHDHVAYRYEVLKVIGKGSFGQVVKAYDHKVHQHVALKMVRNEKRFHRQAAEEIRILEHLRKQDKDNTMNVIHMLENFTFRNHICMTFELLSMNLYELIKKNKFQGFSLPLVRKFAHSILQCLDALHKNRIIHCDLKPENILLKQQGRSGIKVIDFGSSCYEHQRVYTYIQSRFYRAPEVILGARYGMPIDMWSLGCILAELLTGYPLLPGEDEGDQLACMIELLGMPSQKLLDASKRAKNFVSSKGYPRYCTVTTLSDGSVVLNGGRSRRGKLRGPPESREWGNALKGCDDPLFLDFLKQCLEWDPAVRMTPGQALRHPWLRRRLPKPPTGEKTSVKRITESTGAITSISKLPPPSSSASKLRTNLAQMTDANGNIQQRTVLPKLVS

PKAα = PKAα (Homo sapiens, UniProt P17612); experiment: HOTSPOT radiometric kinase assay
Experimental: The differential was calculated as follows: IC50 (kinase)/IC50 (PKG1a).

AKT1 = AKT1 (Homo sapiens, UniProt P31749); experiment: HOTSPOT radiometric kinase assay
MAP2K1 (MEK1) = MAP2K1 (MEK1) (Homo sapiens, UniProt Q02750); experiment: HOTSPOT radiometric kinase assay
Sequence of MAP2K1 (MEK1) (Q02750 whole entry): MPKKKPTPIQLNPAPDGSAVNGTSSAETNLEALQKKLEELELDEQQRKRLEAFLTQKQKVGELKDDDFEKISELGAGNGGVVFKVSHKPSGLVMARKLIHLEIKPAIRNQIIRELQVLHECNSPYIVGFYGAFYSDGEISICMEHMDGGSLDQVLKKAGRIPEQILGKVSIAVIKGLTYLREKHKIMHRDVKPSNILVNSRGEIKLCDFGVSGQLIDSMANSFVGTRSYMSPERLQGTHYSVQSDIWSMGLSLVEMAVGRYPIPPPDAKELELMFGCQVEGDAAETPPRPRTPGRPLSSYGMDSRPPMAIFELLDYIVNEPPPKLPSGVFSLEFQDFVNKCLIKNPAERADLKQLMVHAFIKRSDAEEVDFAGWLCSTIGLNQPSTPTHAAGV

CAMK1δ = CAMK1δ (Homo sapiens, UniProt Q8IU85); experiment: HOTSPOT radiometric kinase assay
CK1α1 = CK1α1 (Homo sapiens, UniProt P48729); experiment: HOTSPOT radiometric kinase assay
Sequence of CK1α1 (P48729 whole entry): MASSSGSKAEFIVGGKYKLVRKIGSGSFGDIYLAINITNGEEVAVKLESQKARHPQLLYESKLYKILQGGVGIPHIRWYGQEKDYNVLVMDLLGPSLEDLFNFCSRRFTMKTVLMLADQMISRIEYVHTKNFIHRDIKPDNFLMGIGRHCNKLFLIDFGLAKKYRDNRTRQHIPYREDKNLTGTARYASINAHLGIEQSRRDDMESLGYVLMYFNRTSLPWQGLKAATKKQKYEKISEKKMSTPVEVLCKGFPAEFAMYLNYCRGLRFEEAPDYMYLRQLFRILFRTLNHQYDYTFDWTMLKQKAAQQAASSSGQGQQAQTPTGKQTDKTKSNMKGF

ERBB2/HER2 = ERBB2/HER2 (Homo sapiens, UniProt P04626); experiment: HOTSPOT radiometric kinase assay
Sequence of ERBB2/HER2 (P04626 23-1255): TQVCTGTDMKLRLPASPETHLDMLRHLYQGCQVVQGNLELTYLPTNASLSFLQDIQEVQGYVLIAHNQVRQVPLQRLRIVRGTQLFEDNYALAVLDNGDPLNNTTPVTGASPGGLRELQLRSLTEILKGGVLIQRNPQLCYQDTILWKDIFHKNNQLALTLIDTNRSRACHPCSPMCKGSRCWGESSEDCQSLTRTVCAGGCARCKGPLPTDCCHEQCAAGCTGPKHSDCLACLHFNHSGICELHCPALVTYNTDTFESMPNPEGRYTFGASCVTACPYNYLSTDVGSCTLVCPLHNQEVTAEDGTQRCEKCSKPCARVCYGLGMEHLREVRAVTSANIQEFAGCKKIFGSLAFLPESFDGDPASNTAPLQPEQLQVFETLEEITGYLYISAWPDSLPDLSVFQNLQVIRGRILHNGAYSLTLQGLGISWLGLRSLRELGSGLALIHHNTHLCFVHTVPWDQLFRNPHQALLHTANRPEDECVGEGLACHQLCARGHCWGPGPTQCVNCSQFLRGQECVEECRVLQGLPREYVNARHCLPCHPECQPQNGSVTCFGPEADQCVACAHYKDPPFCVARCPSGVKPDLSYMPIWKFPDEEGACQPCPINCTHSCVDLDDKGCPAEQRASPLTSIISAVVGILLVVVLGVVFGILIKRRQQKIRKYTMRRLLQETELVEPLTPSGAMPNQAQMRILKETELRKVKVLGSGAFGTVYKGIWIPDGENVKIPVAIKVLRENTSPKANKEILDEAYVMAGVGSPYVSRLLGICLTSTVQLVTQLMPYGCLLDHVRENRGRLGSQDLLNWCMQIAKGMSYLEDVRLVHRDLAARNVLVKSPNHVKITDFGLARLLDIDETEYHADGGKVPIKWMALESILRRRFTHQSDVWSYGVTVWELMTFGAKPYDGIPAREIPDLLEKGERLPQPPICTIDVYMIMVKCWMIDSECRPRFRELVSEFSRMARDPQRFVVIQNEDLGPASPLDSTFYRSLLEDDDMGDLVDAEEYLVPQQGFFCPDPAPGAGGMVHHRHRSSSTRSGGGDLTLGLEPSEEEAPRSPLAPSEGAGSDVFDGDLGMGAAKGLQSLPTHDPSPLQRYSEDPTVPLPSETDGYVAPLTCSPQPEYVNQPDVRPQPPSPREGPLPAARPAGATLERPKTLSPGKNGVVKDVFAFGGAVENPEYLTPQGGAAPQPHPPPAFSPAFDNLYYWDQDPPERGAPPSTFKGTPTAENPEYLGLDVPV

ERK1 = ERK1 (Homo sapiens, UniProt P27361); experiment: HOTSPOT radiometric kinase assay
Sequence of ERK1 (P27361 whole entry): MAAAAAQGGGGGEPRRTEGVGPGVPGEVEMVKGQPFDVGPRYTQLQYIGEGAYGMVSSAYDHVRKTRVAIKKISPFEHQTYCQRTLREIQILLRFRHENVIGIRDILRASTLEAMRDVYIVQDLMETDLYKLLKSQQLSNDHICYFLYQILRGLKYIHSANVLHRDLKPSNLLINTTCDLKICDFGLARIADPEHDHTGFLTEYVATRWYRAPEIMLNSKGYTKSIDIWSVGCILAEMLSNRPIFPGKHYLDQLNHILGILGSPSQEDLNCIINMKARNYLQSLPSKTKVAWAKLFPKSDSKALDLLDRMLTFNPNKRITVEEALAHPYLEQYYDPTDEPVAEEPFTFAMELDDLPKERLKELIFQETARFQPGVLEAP

FLT1/VEGFR1 = FLT1/VEGFR1 (Homo sapiens, UniProt P17948); experiment: HOTSPOT radiometric kinase assay
GSK3β = GSK3β (Homo sapiens, UniProt P49841); experiment: HOTSPOT radiometric kinase assay
PKCα = PKCα (Homo sapiens, UniProt P17252); experiment: HOTSPOT radiometric kinase assay
[2] = system: panel of 370 human protein kinases; experiment: pan human kinome profiling (370 kinases); details: 50 nM; panel of 370 kinases
DYRK4 = molecular target: T8, DYRK4 (Homo sapiens, UniProt Q9NR20); experiment: HOTSPOT radiometric kinase assay; assay type: biochemical; details: 10 μM ATP
T8 construct: purchased Reaction Biology Corp
T8 sequence (Q9NR20 whole entry): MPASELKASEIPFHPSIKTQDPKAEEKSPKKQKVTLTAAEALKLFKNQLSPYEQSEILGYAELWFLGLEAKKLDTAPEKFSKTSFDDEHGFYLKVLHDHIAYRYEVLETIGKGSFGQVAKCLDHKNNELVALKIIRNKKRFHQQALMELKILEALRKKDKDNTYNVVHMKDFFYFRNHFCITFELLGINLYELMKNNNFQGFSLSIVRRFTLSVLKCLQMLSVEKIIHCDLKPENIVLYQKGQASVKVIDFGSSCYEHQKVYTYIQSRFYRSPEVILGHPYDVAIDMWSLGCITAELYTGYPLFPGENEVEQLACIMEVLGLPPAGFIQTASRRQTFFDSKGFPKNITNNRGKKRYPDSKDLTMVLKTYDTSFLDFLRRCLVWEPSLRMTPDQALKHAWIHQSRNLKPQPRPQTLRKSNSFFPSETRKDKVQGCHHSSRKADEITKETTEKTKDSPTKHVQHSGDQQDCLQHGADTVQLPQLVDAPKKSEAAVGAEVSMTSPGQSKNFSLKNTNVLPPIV

PKADJ = molecular target: T9, PKADJ (Homo sapiens, UniProt P17612); experiment: modified sandwich ELISA, PKADJ holoenzyme; assay type: biochemical
T9 construct: gene fusion between the first exon of the gene encoding the Heat Shock Protein 40 (HSP40) family member DNAJB1 and the second exon; the other entry of the earlier key: DNAJB1 (P25685, DnaJ homolog subfamily B member 1)
Experimental: The reaction and readout components of this assay were than optimized including optimal reactant concentrations for the kinase reaction suitable to identify both inhibitors and activators of PKAJ.
The PKADJ holoenzyme was treated with the test compounds in the reaction step where the holoenzyme was dissociated to release the activated catalytic unit (PKADJc).

Structure (SMILES): NCCNC(=O)C1=CN(c2ncnc3[nH]cnc23)CCS1 [Compound 183A049E, N-(2-aminoethyl)-4-(7H-purin-6-yl)-3,4-dihydro-2H-1,4-thiazine-6-carboxamide]
IC50 [1]: 0.1 to 1 µM

Structure (SMILES): Cn1cnc(Br)c1C1=CN(c2ncnc3nc[nH]c23)CCS1 [Compound 1a, Aplithianine A1]
IC50 (wide-type PKA (wt-PKA)): 1.22 µM | inhibition at 0.05 µM (PKG1α): > 50% | inhibition at 0.05 µM (PKG1β): > 50% | inhibition at 0.05 µM (PKCθ): > 50% | inhibition at 0.05 µM (CLK1): > 50% | inhibition at 0.05 µM (STK39/STLK3): > 50% | inhibition at 0.05 µM (LATS1): > 50% | inhibition at 0.05 µM (DYRK1A): > 50% | inhibition at 0.05 µM (DYRK2): > 50% | IC50 (PKAα): 0.043 to 0.189 µM | PKAα % inhibition (PKAα; 50 nM, 10 μM ATP): 78% | IC50 (AKT1): 0.043 to 0.189 µM | IC50 (MAP2K1 (MEK1)): 18 to 65 µM | IC50 (CAMK1δ): 18 to 65 µM | IC50 (CK1α1): 0.8 to 6.6 µM | IC50 (ERBB2/HER2): 18 to 65 µM | IC50 (ERK1): 0.8 to 6.6 µM | IC50 (FLT1/VEGFR1): 18 to 65 µM | IC50 (GSK3β): 0.043 to 0.189 µM | IC50 (PKCα): 0.8 to 6.6 µM | number of kinases more potent targets compared to PKA [2]: 29

Structure (SMILES): CC(=O)NCCNC(=O)C1=CN(c2ncnc3[nH]cnc23)CCS1 [Compound 183A050B, N-(2-acetamidoethyl)-4-(7H-purin-6-yl)-3,4-dihydro-2H-1,4-thiazine-6-carboxamide]
IC50 [1]: > 10 µM

Structure (SMILES): O=C(NCCNC(=O)c1ccccc1)C1=CN(c2ncnc3nc[nH]c23)CCS1 [Compound 183A049F, N-(2-benzamidoethyl)-4-(7H-purin-6-yl)-3,4-dihydro-2H-1,4-thiazine-6-carboxamide]
IC50 [1]: > 10 µM

Structure (SMILES): O=C1Nc2ccc(I)cc2/C1=C/c1cc(Br)c(O)c(Br)c1 [GW5074, reference compound]
IC50 (DYRK4): 3.66 µM

Structure (SMILES): Cn1cncc1C1=CN(c2ncnc3[nH]c(=O)[nH]c23)CCS1 [Compound 2, Aplithianine B]
fold less potent than 1 against PKADJ (PKADJ; compared with compound 1): more than 60 fold | IC50 (PKADJ; modified sandwich ELISA, read-out: IC50 against PKADJ): 69 µM | IC50 (wide-type PKA (wt-PKA)): 45 µM

Structure (SMILES): O=C(NCCNC(=O)c1ccccn1)C1=CN(c2ncnc3nc[nH]c23)CCS1 [Compound 183A049C, N-(2-(picolinamido)ethyl)-4-(7H-purin-6-yl)-3,4-dihydro-2H-1,4-thiazine-6-carboxamide]
IC50 [1]: > 10 µM

Further lines, results first:

IC50 [1]: > 10 µM
Structure (SMILES): NCCNC(=O)C1CN(c2ncnc3[nH]cnc23)CCS1 (stereo not drawn) [Compound 183A051C, N-(2-aminoethyl)-4-(7H-purin-6-yl)thiomorpholine-2-carboxamide]

IC50 [1]: 1.01 to 10 µM
Structure (SMILES): CNCCNC(=O)C1=CN(c2ncnc3nc[nH]c23)CCS1 [Compound 183A050E, N-(2-(methylamino)ethyl)-4-(7H-purin-6-yl)-3,4-dihydro-2H-1,4-thiazine-6-carboxamide]

IC50 [1]: > 10 µM
Structure (SMILES): COCCNC(=O)C1=CN(c2ncnc3[nH]cnc23)CCS1 [Compound 183A050C, N-(2-methoxyethyl)-4-(7H-purin-6-yl)-3,4-dihydro-2H-1,4-thiazine-6-carboxamide]

IC50 [1]: > 10 µM
Structure (SMILES): O=C(NCCO)C1=CN(c2ncnc3[nH]cnc23)CCS1 [Compound 183A050D, N-(2-hydroxyethyl)-4-(7H-purin-6-yl)-3,4-dihydro-2H-1,4-thiazine-6-carboxamide]
